≈ marks a conversion by molar mass, not a printed value.
What was measured:
[1] = tested on: M. tuberculosis DRM167-8x6 (KasA M213L); assay type: cell-based, Mycobacterium tuberculosis
[2] = tested on: M. tuberculosis DRM167-16x3 (KasA V123A); assay type: cell-based, Mycobacterium tuberculosis
[3] = tested on: M. tuberculosis DRM167-32x11 (KasA G240S); assay type: cell-based, Mycobacterium tuberculosis
[4] = tested on: M. tuberculosis DRM167-32x2 (KasA P206T); assay type: cell-based, Mycobacterium tuberculosis
[5] = tested on: M. tuberculosis DRM167-16x6 (KasA I122S); assay type: cell-based, Mycobacterium tuberculosis
[6] = tested on: M. tuberculosis DRM167-8x2 (KasA A119T); assay type: cell-based, Mycobacterium tuberculosis
[7] = tested on: M. tuberculosis DRM167-8x3 (KasA I145T); assay type: cell-based, Mycobacterium tuberculosis
M. tuberculosis TDR116 = test: microbe, parasite or virus in culture; assay type: cell-based; conditions: Mycobacterium tuberculosis
M. tuberculosis TDR31 = test: microbe, parasite or virus in culture; assay type: cell-based; conditions: Mycobacterium tuberculosis
[8] = tested on: mycolic acid biosynthesis in M. tuberculosis DRM167-32x2 (KasA P206T); assay type: cell-based, Mycobacterium tuberculosis
M. tuberculosis mc^24914 = test: microbe, parasite or virus in culture; assay type: cell-based; conditions: Mycobacterium tuberculosis
M. tuberculosis DRM8.3 = test: microbe, parasite or virus in culture; assay type: cell-based; conditions: Mycobacterium tuberculosis
M. tuberculosis TDR36 = test: microbe, parasite or virus in culture; assay type: cell-based; conditions: Mycobacterium tuberculosis
M. tuberculosis DRM5 = test: microbe, parasite or virus in culture; assay type: cell-based; conditions: Mycobacterium tuberculosis

| SMILES | MIC [1] [µM] | MIC [2] [µM] | MIC [3] [µM] | MIC [4] [µM] | MIC [5] [µM] | MIC [6] [µM] | MIC [7] [µM] | MIC (M. tuberculosis TDR116) [µM] | MIC (M. tuberculosis TDR31) [µM] | frequency of resistant mutants (M. tuberculosis) | inhibition of mycolic acid biosynthesis [8] | MIC (M. tuberculosis mc^24914) [µM] | MIC (M. tuberculosis DRM8.3) [µM] | MIC (M. tuberculosis TDR36) [µM] | MIC (M. tuberculosis DRM5) [µM] |
| --- | --- | --- | --- | --- | --- | --- | --- | --- | --- | --- | --- | --- | --- | --- | --- |
| CO[C@H]1/C=C/O[C@@]2(C)Oc3c(C)c(O)c4c(O)c(c(/C=N/N5CCN(C)CC5)c(O)c4c3C2=O)NC(=O)/C(C)=C\C=C\[C@H](C)[C@H](O)[C@@H](C)[C@@H](O)[C@@H](C)[C@H](OC(C)=O)[C@@H]1C [RIF, rifampin] | 0.001 (≈ 0.000823 µg/mL) | 0.001 (≈ 0.000823 µg/mL) | 0.001 (≈ 0.000823 µg/mL) | 0.001 (≈ 0.000823 µg/mL) | 0.001 (≈ 0.000823 µg/mL) | 0.001 (≈ 0.000823 µg/mL) | 0.002 (≈ 0.00165 µg/mL) |  |  |  |  |  |  |  |  |
| CCCCS(=O)(=O)Nc1ccc2cnn(C)c2c1 [DG167, N-(1-Methyl-1H-indazol-6-yl)butane-1-sulfonamide] | 3.12 (≈ 0.834 µg/mL) | 1.56 (≈ 0.417 µg/mL) | 100 (≈ 26.7 µg/mL) | >100 | 50 (≈ 13.4 µg/mL) | 50 (≈ 13.4 µg/mL) | 6.25 (≈ 1.67 µg/mL) | 0.2 (≈ 0.0535 µg/mL) | 0.2 (≈ 0.0535 µg/mL) | 1 × 10^−7 | resistant to DG167-mediated inhibition of mycolic acid biosynthesis | 0.78 (≈ 0.209 µg/mL) |  |  |  |
| CC[C@@H](CO)NCCN[C@@H](CC)CO [EMB, ethambutol] | 1.56 (≈ 0.319 µg/mL) | 1.56 (≈ 0.319 µg/mL) | 1.56 (≈ 0.319 µg/mL) | 1.56 (≈ 0.319 µg/mL) | 1.56 (≈ 0.319 µg/mL) | 1.56 (≈ 0.319 µg/mL) | 1.56 (≈ 0.319 µg/mL) |  |  |  |  |  |  |  |  |
| CCc1cc(C(N)=S)ccn1 [ETH, ethionamide] | 25 (≈ 4.16 µg/mL) | 25 (≈ 4.16 µg/mL) | 12.5 (≈ 2.08 µg/mL) | 12.5 (≈ 2.08 µg/mL) | 12.5 (≈ 2.08 µg/mL) | 12.5 (≈ 2.08 µg/mL) | 25 (≈ 4.16 µg/mL) |  |  |  |  |  |  |  |  |
| O=[N+]([O-])c1cn2c(n1)OC[C@@H](OCc1ccc(OC(F)(F)F)cc1)C2 [PA824] | 0.1 (≈ 0.0359 µg/mL) | 0.1 (≈ 0.0359 µg/mL) | 0.1 (≈ 0.0359 µg/mL) | 0.1 (≈ 0.0359 µg/mL) | 0.1 (≈ 0.0359 µg/mL) | 0.1 (≈ 0.0359 µg/mL) | 0.1 (≈ 0.0359 µg/mL) |  |  |  |  |  |  |  |  |
| NNC(=O)c1ccncc1 [INH, isoniazid] | 0.38 (≈ 0.0521 µg/mL) | 0.38 (≈ 0.0521 µg/mL) | 0.19 (≈ 0.0261 µg/mL) | 0.19 (≈ 0.0261 µg/mL) | 0.19 (≈ 0.0261 µg/mL) | 0.38 (≈ 0.0521 µg/mL) | 0.38 (≈ 0.0521 µg/mL) | > 12 | > 12 |  |  | 1.6 (≈ 0.219 µg/mL) | 0.4 (≈ 0.0549 µg/mL) | > 12 | 0.4 (≈ 0.0549 µg/mL) |
| COc1c(N2C[C@@H]3CCCN[C@@H]3C2)c(F)cc2c(=O)c(C(=O)O)cn(C3CC3)c12 [Moxi, moxifloxacin] | 0.03 (≈ 0.012 µg/mL) | 0.03 (≈ 0.012 µg/mL) | 0.03 (≈ 0.012 µg/mL) | 0.03 (≈ 0.012 µg/mL) | 0.03 (≈ 0.012 µg/mL) | 0.03 (≈ 0.012 µg/mL) | 0.03 (≈ 0.012 µg/mL) |  |  |  |  |  |  |  |  |
| CC(C)=CCC/C(C)=C/CNCCNC1C2CC3CC(C2)CC1C3 (centres unmarked) [SQ109] | 0.4 (≈ 0.132 µg/mL) | 0.8 (≈ 0.264 µg/mL) | 0.4 (≈ 0.132 µg/mL) | 0.4 (≈ 0.132 µg/mL) | 0.4 (≈ 0.132 µg/mL) | 0.8 (≈ 0.264 µg/mL) | 0.8 (≈ 0.264 µg/mL) |  |  |  |  |  |  |  |  |
| COc1nc2ccc(Br)cc2cc1[C@@H](c1ccccc1)[C@@](O)(CCN(C)C)c1cccc2ccccc12 [BDQ, bedaquiline] | 0.5 (≈ 0.278 µg/mL) | 0.5 (≈ 0.278 µg/mL) | 0.25 (≈ 0.139 µg/mL) | 0.12 (≈ 0.0667 µg/mL) | 0.5 (≈ 0.278 µg/mL) | 0.5 (≈ 0.278 µg/mL) | 1 (≈ 0.556 µg/mL) |  |  |  |  |  |  |  |  |
